# Laboratory results taken from patent US20240025868A1, “PHENOTHIAZINE COMPOUNDS FOR THE TREATMENT OF ALZHEIMER'S DISEASE AND OTHER AGE-RELATED AND NEUROLOGICAL DISEASES” (Icahn School of Medicine at Mount Sinai, priority 2020, published 2024).
# Several values for one entry are separate records, joined by “and”; a condition that tells them apart may be missing. Equal values may be shown once. Where a name gives a salt, the structure may show the parent alone. Read-outs that look alike come from different tables or passages of the source.
# Legend:
# [1] = tested on: SARS-CoV-2; experiment: microbe, parasite or virus in culture; type: cell-based
# [2] = Viability of Vero cells (CC50); type: cell-based; conditions: African green monkey; concentration that reduces viability of Vero cells
# [3] = tested on: C. elegans; experiment: Lifespan in C. elegans; type: in vivo
# [4] = tested on: TNF-alpha; experiment: Microglial TNF-alpha secretion, LPS stimulated; type: cell-based; conditions: for TNFa: percentage of TNFa vs LPS stimulated controls, Table 2; for TNF-a.: Table 3, microglial inflammation, presented for comparison
# Procedure: The efficacy of these compounds to reduce toxicity are assessed, as reflected by age-dependent paralysis, in an Abeta transgenic C. elegans model of Alzheimer's Disease. Because microglial inflammation, especially the cytokine TNF-alpha, are implicated in driving the pathophysiology of Alzheimer's Disease, […], was also assessed.
# [5] = tested on: microglial cells; experiment: MTT viability of microglial cells (microglial toxicity); type: cell-based
# [6] = tested on: Abeta transgenic C. elegans; experiment: Paralysis in Abeta transgenic C. elegans (Abeta toxicity); type: in vivo; conditions: for paralysis: Table 3, Abeta toxicity in C. elegans, one to six unexplained values per cell
# [7] = Plasma and brain concentrations after IV or oral administration in mice; type: in vivo; conditions: male C57BL/6 mice
# Procedure: FIG. 2. Plasma and brain concentrations of TC084-110 over 8 h following a single IV injection (A) at 1 mg/kg or oral administration (B) at 10 mg/kg in male C57BL/6 mice. […] Plasma and brain concentrations at each time point represent the mean+/−SD from 3 mice.
# [8] = tested on: mouse model of intracerebral hemorrhage; experiment: Mouse model of intracerebral hemorrhage, motor and cognitive function; type: in vivo; conditions: for cognitive function: alternation in a Y-maze; for cognitive function / motor function: compared to DMSO, normalized to pre-ICH function; for motor function: rotarod
# Procedure: FIG. 1. […] Motor function was assessed using rotarod and cognitive was assessed by alternation in a Y-maze. All data were normalized to data pre-ICH function.
# Motor function was assessed using rotarod and cognitive was assessed by alternation in a Y-maze. All data were normalized to data pre-ICH function.
# [9] = tested on: mouse double-transgenic (A-beta/presenilin) model of AD; conditions: treatment between 14 and 15 months; Govindarajan et al. 2011; cited from earlier work
# [10] = tested on: Abeta transgenic C. elegans; conditions: Zhang, Poplawski et al. 2009; cited from earlier work
# [11] = tested on: Vero cells; experiment: Viability of Vero cells (CC50); type: cell-based; conditions: concentration that reduces viability of Vero cells
# [12] = percentage of MTT viability compared to unstimulated DMSO control cells, Table 2
# [13] = Severe acute respiratory syndrome coronavirus 2, concentration that inhibits replication of SARS-CoV-2 in Vero cells by 50%, read-out: IC50
# [14] = Table 3, net protective effects in C. elegans, class letter
# [15] = Table 3, microglial toxicity, presented for comparison
# [16] = concentration that inhibits replication of SARS-CoV-2 in Vero cells by 50%, read-out: IC50
compound,measurement,setting,value
"CCC(CC)COC(=O)[C@H](C)N[P@](=O)(OC[C@H]1O[C@@](C#N)(c2ccc3c(N)ncnn23)[C@H](O)[C@@H]1O)Oc1ccccc1 [Remdesivir, reference compound]",IC50,"[1]; Severe acute respiratory syndrome coronavirus 2, Vero",1.2 µM
same,CC50,[2],> 20 µM
"CC(=O)c1ccc2c(c1)N(C(C)=O)c1ccccc1S2 [TC84-13, 1,1′-(10H-phenothiazine-2,10-diyl)bis(ethan-1-one)]",lifespan in C. elegans,[3],increased lifespan
same,Lifespan,"[3]; Table 2, class letters I, D, N",I
same,TNFa,[4],95.36%
same,MTT,[5]; [12],154.03%
"CC(=O)c1ccc2c(c1)N(C(C)=O)c1ccccc1[S+]2[O-] (centres unmarked) [TC84-20, 1,1′-(5-oxido-10H-phenothiazine-2,10-diyl)bis(ethan-1-one)]",lifespan in C. elegans,[3],increased lifespan
same,Lifespan,"[3]; Table 2, class letters I, D, N",I
same,TNFa,[4],95.41%
same,MTT,[5]; [12],158.76%
"COc1ccc2c(c1)N(C(C)=O)c1ccccc1S2 [TC84-31, 1-(2-methoxy-10H-phenothiazin-10-yl)ethan-1-one]",TNFa,[4],92.28%
same,MTT,[5]; [12],153.72%
"CC(=O)N1c2ccccc2Sc2ccc(C(F)(F)F)cc21 [TC84-32, 1-(2-(trifluoromethyl)-10H-phenothiazin-10-yl)ethan-1-one]",TNFa,[4],90.74%
same,MTT,[5]; [12],141.59%
"COc1ccc2c(c1)N(C(C)=O)c1ccccc1[S+]2[O-] (centres unmarked) [TC84-37, 1-(2-methoxy-5-oxido-10H-phenothiazin-10-yl)ethan-1-one]",TNFa,[4],90.49%
same,MTT,[5]; [12],140.38%
"CC(=O)N1c2ccccc2[S+]([O-])c2ccc(C(F)(F)F)cc21 (centres unmarked) [TC84-38, 1-(5-oxido-2-(trifluoromethyl)-10H-phenothiazin-10-yl)ethan-1-one]",lifespan in C. elegans,[3],increased lifespan
same,Lifespan,"[3]; Table 2, class letters I, D, N",I
same,TNFa,[4],97.23%
same,MTT,[5]; [12],149.90%
"CC(=O)N1c2ccccc2[S+]([O-])c2ccc(Cl)cc21 (centres unmarked) [TC84-39, 1-(2-chloro-5-oxido-10H-phenothiazin-10-yl)ethan-1-one]",lifespan in C. elegans,[3],increased lifespan
same,Lifespan,"[3]; Table 2, class letters I, D, N",I
same,TNFa,[4],90.88%
same,MTT,[5]; [12],134.67%
"CN1CCCCC1CCN1c2ccccc2Sc2ccc(F)cc21 (centres unmarked) [TC84-110, 2-fluoro-10-(2-(1-methylpiperidin-2-yl)ethyl)-10H-phenothiazine]",SARS-CoV-2 replication,[1],reduced SARS-CoV-2 replication
same,IC50,[1]; [13],1.2 µM
same,lifespan in C. elegans,[3],increased lifespan
same,Lifespan,"[3]; Table 2, class letters I, D, N",I
same,Lifespan,[3]; [14],I
same,Abeta toxicity,[6],reduced Abeta toxicity
same,microglial TNF-alpha secretion,[4],significantly reduced
same,TNF-a.,[4],58.49%
same,TNFa,[4],58.49%
same,CC50,[2],8.1 µM
same,MTT,[5]; [15],91.99%
same,MTT,[5]; [12],91.99%
same,oral availability,[7]; oral administration at 10 mg/kg,orally available
same,brain/plasma ratio,"[7]; single IV 1 mg/kg or oral 10 mg/kg, over 8 h",very high
same,protection to maintain open field behavior and cognitive impairments,[8]; administered after the lesion was produced,significantly protective
same,cognitive function,[8],preserve
same,off-target effects such as sedation,[8]; mouse,no discernable off-target effects
same,motor function,[8],preserve
"Cc1cc2c(cc1C)N(CCCN(C)C)c1ccccc1S2 [TC84-124, 3-(2,3-dimethyl-10H-phenothiazin-10-yl)-N,N-dimethylpropan-1-amine]",SARS-CoV-2 replication,[1],reduced SARS-CoV-2 replication
same,IC50,[1]; [13],1.7 µM
same,lifespan in C. elegans,[3],increased lifespan
same,Lifespan,"[3]; Table 2, class letters I, D, N",I
same,Lifespan,[3]; [14],I
same,Abeta toxicity,[6],reduced Abeta toxicity
same,microglial TNF-alpha secretion,[4],significantly reduced
same,TNF-a.,[4],56.73%
same,TNFa,[4],56.73%
same,CC50,[2],6.5 µM
same,MTT,[5]; [15],82.48%
same,MTT,[5]; [12],82.48%
"Cc1cc2c(cc1C)N(CCC1CCCCN1C)c1ccccc1S2 (centres unmarked) [TC84-125, 2,3-dimethyl-10-(2-(1-methylpiperidin-2-yl)ethyl)-10H-phenothiazine]",lifespan in C. elegans,[3],increased lifespan
same,Lifespan,"[3]; Table 2, class letters I, D, N",I
same,Abeta toxicity,[6],reduced Abeta toxicity
same,microglial TNF-alpha secretion,[4],significantly reduced
same,TNFa,[4],41.37%
same,MTT,[5]; [12],42.77%
"CN1CCCCC1CCN1c2ccccc2Sc2cc(C(F)(F)F)ccc21 (centres unmarked) [TC84-144, 10-(2-(1-methylpiperidin-2-yl)ethyl)-3-(trifluoromethyl)-10H-phenothiazine]",lifespan in C. elegans,[3],increased lifespan
same,Lifespan,"[3]; Table 2, class letters I, D, N",I
same,TNFa,[4],45.34%
same,MTT,[5]; [12],41.27%
"CC(=O)c1ccc2c(c1)N(CCCN(C)C(C)=O)c1ccccc1S2 [TC84-161, N-(3-(2-acetyl-10H-phenothiazin-10-yl)propyl)-N-methylacetamide]",lifespan in C. elegans,[3],increased lifespan
same,Lifespan,"[3]; Table 2, class letters I, D, N",I
same,TNFa,[4],89.27%
same,MTT,[5]; [12],106.15%
"CC(=O)N(C)CCCN1c2ccccc2Sc2ccc(C(F)(F)F)cc21 [TC84-162, N-methyl-N-(3-(2-(trifluoromethyl)-10H-phenothiazin-10-yl)propyl)acetamide]",Abeta toxicity,[6],reduced Abeta toxicity
same,microglial TNF-alpha secretion,[4],significantly reduced
same,TNFa,[4],94.58%
same,MTT,[5]; [12],121.08%
"COc1ccc2c(c1)N(CCCN(C)C(C)=O)c1ccccc1S2 [TC84-163, N-(3-(2-methoxy-10H-phenothiazin-10-yl)propyl)-N-methylacetamide]",lifespan in C. elegans,[3],increased lifespan
same,Lifespan,"[3]; Table 2, class letters I, D, N",I
same,TNFa,[4],99.98%
same,MTT,[5]; [12],108.79%
"Cc1ccc2c(c1)N(CCC1CCCCN1C)c1cc(C(F)(F)F)ccc1S2 (centres unmarked) [TC96-20, 2-methyl-10-(2-(1-methylpiperidin-2-yl)ethyl)-8-(trifluoromethyl)-10H-phenothiazine]",Abeta toxicity,[6],reduced Abeta toxicity
same,microglial TNF-alpha secretion,[4],significantly reduced
same,TNFa,[4],49.67%
same,MTT,[5]; [12],51.90%
"COc1ccc2c(c1)N(CCC1CCCCN1C(C)=O)c1ccccc1S2 (centres unmarked) [TC96-32, 1-(2-(2-(2-methoxy-10H-phenothiazin-10-yl)ethyl)piperidin-1-yl)ethan-1-one]",TNFa,[4],78.98%
same,MTT,[5]; [12],106.92%
CN(C)CCCN1c2ccccc2Sc2ccc(C(F)(F)F)cc21 [Triflupromazine Hydrochloride],CC50,[2],7 µM
CCCC(=O)[O-].[Na+] [sodium butyrate],A-beta plaques,[9],no changes in A-beta plaques
same,"acetylation of H3K14, H4K5, and H4K16",[9],reduced acetylation
same,cognitive impairments,[9],reversed cognitive impairments
same,Abeta toxicity in vivo in a C. elegans model of AD,[10],significantly reduces Abeta toxicity
Chlorpromazine [reference compound],IC50,[1]; [16],4.4 µM
same,Lifespan,[3]; [14],I
same,paralysis,[6],0%
same,TNF-a.,[4],63.83%
same,CC50,[11],6.7 µM
same,MTT,[5]; [15],79.38%
Chlorprothixene [reference compound],IC50,[1]; [16],1 µM
same,Lifespan,[3]; [14],I 0.0493
same,paralysis,[6],64.31% and 47.65%
same,TNF-a.,[4],69.84%
same,CC50,[11],3.5 µM
same,MTT,[5]; [15],122.40%
same,cognitive function,[8],preserve
same,motor function,[8],preserve
